Reference: ChEMBL document CHEMBL4627339, “Structural motives controlling the binding affinity of 9,10-bis(methylpyridinium)anthracenes towards DNA” (Bioorg Med Chem, 2020)
Active and inactive are the calls of the source. The rule behind the calls is not given here.

Experiments:
Assay type in all cases: nucleic-acid assay
Calf thymus DNA [1] = assay: Binding affinity to calf thymus DNA assessed as groove binding by measuring blue-shift in maximum emission intensity of compound by fluorescence spectroscopy; conditions: Bos taurus
Calf thymus DNA [2] = assay: Binding affinity to calf thymus DNA assessed as bathochromic shift in maximum absorption at 50 uM by UV-Vis absorption spectroscopic method; conditions: Bos taurus
Calf thymus DNA [3] = assay: Binding affinity to calf thymus DNA assessed as groove binding by measuring induced circular dichroism with negative signs around 370-380 nm by CD spectroscopy; conditions: Bos taurus
Calf thymus DNA [4] = assay: Binding affinity to calf thymus DNA assessed as DNA intercalation by measuring helix stabilization by DNA melting studies based absorbance analysis; conditions: Bos taurus
Calf thymus DNA [5] = assay: Binding affinity to calf thymus DNA assessed as hypochromism at 50 uM by UV-Vis spectroscopy relative to control; conditions: Bos taurus
Calf thymus DNA [6] = assay: Binding affinity to calf thymus DNA assessed as minor groove binding by measuring rise in absorbance at melting temperature between 76 and 77 degC by DNA melting studies based absorbance analysis; conditions: Bos taurus
[7] = system: Poly(dA-dT)oligonucleotide; assay: Binding affinity to poly(dA:dT) dsDNA (unknown origin) assessed as increase in fluorescence intensity by fluorescence spectroscopy
Calf thymus DNA [8] = assay: Binding affinity to calf thymus DNA assessed as binding constant by UV-Vis absorption spectroscopic method; conditions: Bos taurus
[9] = system: Poly(dA-dT)oligonucleotide; assay: Binding affinity to poly(dA:dT) dsDNA (unknown origin) assessed as binding constant by fluorescence spectroscopy
[10] = system: Poly(dA-dT)oligonucleotide; assay: Binding affinity to poly(dA:dT) dsDNA (unknown origin) assessed as increase in intensity with one ligand binding for two base pairs by UV-Vis spectroscopy
[11] = system: Poly(dA-dT)oligonucleotide; assay: Binding affinity to poly(dA:dT) dsDNA (unknown origin) assessed as red shift in absorption maxima by UV-Vis spectroscopy
[12] = system: Poly(dG-dC)oligonucleotide; assay: Binding affinity to poly(dG:dC) dsDNA (unknown origin) assessed as increase in fluorescence intensity by fluorescence spectroscopy
[13] = system: Poly(dG-dC)oligonucleotide; assay: Binding affinity to poly(dG:dC) dsDNA (unknown origin) assessed as red shift in absorption maxima by UV-Vis spectroscopy
Calf thymus DNA [14] = assay: Binding affinity to calf thymus DNA assessed as groove binding by measuring spectral changes up to compound:base pair concentration ratio of 1:39 in presence of 300 mM NaCl by UV-Vis spectroscopic method; conditions: Bos taurus
Calf thymus DNA [15] = assay: Binding affinity to calf thymus DNA assessed as loss of vibronic fine structure at 50 uM by UV-Vis absorption spectroscopic method; conditions: Bos taurus

C[n+]1cccc(-c2c3ccccc3c(-c3ccc[n+](C)c3)c3ccccc23)c1
Activity (Calf thymus DNA [1]): Active
Activity (Calf thymus DNA [2]): Active
Activity (Calf thymus DNA [3]): Active
Activity (Calf thymus DNA [4]): inactive
Activity (Calf thymus DNA [5]): 41%
Activity (Calf thymus DNA [6]): Active
Activity [7]: Active
KB (Calf thymus DNA [8]): 1.8 ×10⁵ /M

C[n+]1ccccc1-c1c2ccccc2c(-c2cccc[n+]2C)c2ccccc12
Activity (Calf thymus DNA [1]): inactive
Activity (Calf thymus DNA [2]): inactive
Activity (Calf thymus DNA [3]): inactive
Activity [7]: inactive

CCc1ccc2c(-c3cc[n+](C)cc3)c3ccccc3c(-c3cc[n+](C)cc3)c2c1
Activity (Calf thymus DNA [1]): Active
Activity (Calf thymus DNA [2]): Active
Activity (Calf thymus DNA [3]): Active
Activity (Calf thymus DNA [4]): inactive
Activity (Calf thymus DNA [5]): 55%
Activity (Calf thymus DNA [6]): Active
Activity [7]: Active
KB (Calf thymus DNA [8]): 1.2 ×10⁴ /M

C[n+]1ccc(-c2c3ccccc3c(-c3cc[n+](C)cc3)c3cc(C(C)(C)C)ccc23)cc1
Activity (Calf thymus DNA [1]): Active
Activity (Calf thymus DNA [2]): Active
Activity (Calf thymus DNA [3]): inactive
Activity (Calf thymus DNA [4]): inactive
Activity (Calf thymus DNA [5]): 66%
Activity (Calf thymus DNA [6]): Active
Activity [7]: Active
KB (Calf thymus DNA [8]): 7.3 ×10³ /M

C[n+]1cc(-c2c3ccccc3c(-c3cc4ccccc4[n+](C)c3)c3ccccc23)cc2ccccc21
Activity (Calf thymus DNA [1]): Active
Activity (Calf thymus DNA [2]): Active
Activity (Calf thymus DNA [3]): Active
Activity (Calf thymus DNA [4]): inactive
Activity (Calf thymus DNA [5]): 56%
Activity (Calf thymus DNA [6]): Active
Activity [7]: Active
KB (Calf thymus DNA [8]): 2.8 ×10⁵ /M

Cc1ccc2c(-c3cc[n+](C)cc3)c3ccccc3c(-c3cc[n+](C)cc3)c2c1
K [9]: 1 ×10⁵ /M
Activity (Calf thymus DNA [1]): Active
Activity (Calf thymus DNA [2]): Active
Activity (Calf thymus DNA [3]): Active
Activity (Calf thymus DNA [4]): inactive
Activity (Calf thymus DNA [5]): 41%
Activity (Calf thymus DNA [6]): Active
Activity [7]: Active
KB (Calf thymus DNA [8]): 6.2 ×10⁴ /M

C[n+]1ccc(-c2c3ccccc3c(-c3cc[n+](C)cc3)c3ccccc23)cc1
K [9]: 1.6 ×10⁵ /M
Activity [10]: Active
Activity (Calf thymus DNA [1]): Active
Activity [11]: Active
Activity (Calf thymus DNA [2]): Active
Activity (Calf thymus DNA [3]): Active
Activity (Calf thymus DNA [4]): inactive
Activity [12]: inactive
Activity [13]: inactive
Activity (Calf thymus DNA [5]): 74%
Activity (Calf thymus DNA [14]): Active
Activity (Calf thymus DNA [6]): Active
Activity [7]: Active
KB (Calf thymus DNA [8]): 8.4 ×10⁴ /M
Activity (Calf thymus DNA [15]): Active

c1ccc2c(-c3ccncc3)c3ccccc3c(-c3ccncc3)c2c1
Activity (Calf thymus DNA [2]): inactive
